System: H9 embryonic stem cells
Assay: Microarray analysis of definitive endoderm stage cells on […] or MEFs +/- Wnt-3a (Table VI)
Format: cell-based, human
Details: log format
[1] = DE treatment in low serum on MATRIGEL
[2] = DE treatment in low serum on MEFS

Activin A: activin A (a member of the TGFβ superfamily), R&D Systems; 'w/o wnt' in Table VII = 100 ng/ml Activin A without Wnt3a
mean normalized intensity: DKFZP566K1924 protein [1]: 2.882
mean normalized intensity: ESTs, Moderately similar to ALU2_HUMAN ALU SUBFAMILY SB SEQUENCE CONTAMINATION WARNING ENTRY (H. sapiens) [1]: 4.241
mean normalized intensity: H. sapiens mRNA for B-HLH DNA binding protein. [1]: 5.43
mean normalized intensity: Homo sapiens BCL2-interacting killer (apoptosis-inducing) (BIK), mRNA. [1]: 4.3
mean normalized intensity: Homo sapiens Charot-Leyden crystal protein (CLC), mRNA. [1]: 3.301
mean normalized intensity: Homo sapiens HES-related repressor protein 1 HERP1 mRNA, complete cds. [1]: 2.806
mean normalized intensity: Homo sapiens HSPC156 protein (HSPC156), mRNA. [1]: 0.7862
mean normalized intensity: Homo sapiens KIAA0469 gene product (KIAA0469), mRNA. [1]: 4.031
mean normalized intensity: Homo sapiens PNAS-123 mRNA, complete cds [1]: 1.597
mean normalized intensity: Homo sapiens Wilms tumor 1 (WT1), transcript variant D, mRNA. [1]: 2.405
mean normalized intensity: Homo sapiens cDNA FLJ11398 fis, clone HEMBA1000637. [1]: 2.5268
mean normalized intensity: Homo sapiens cDNA: FLJ22547 fis, clone HSI00356 [1]: 4.294
mean normalized intensity: Homo sapiens cadherin 6, type 2, K-cadherin (fetal kidney) (CDH6), mRNA. [1]: 0.8248
mean normalized intensity: Homo sapiens chorionic somatomammotropin hormone 2 (CSH2), transcript variant 1, mRNA. [1]: 1.124
mean normalized intensity: Homo sapiens chorionic somatomammotropin hormone 2 (CSH2), transcript variant 4, mRNA. [1]: 0.8122
mean normalized intensity: Homo sapiens galanin receptor 1 (GALR1), mRNA. [1]: 2.507
mean normalized intensity: Homo sapiens growth hormone 2 (GH2), transcript variant 2, mRNA. [1]: 0.9226
mean normalized intensity: Homo sapiens hypothetical protein FLJ20075 (FLJ20075), mRNA. [1]: −0.3592
mean normalized intensity: Homo sapiens mRNA for SCCA2b, complete cds. [1]: 3.329
mean normalized intensity: Homo sapiens mRNA; cDNA DKFZp586P1124 (from clone DKFZp586P1124) [1]: 0.4856
mean normalized intensity: Homo sapiens methyl-CpG binding protein MBD2 (MBD2) mRNA, complete cds. [1]: 0.4906
mean normalized intensity: Homo sapiens tachykinin, precursor 1 (TAC1), transcript variant beta, mRNA. [1]: 2.773
mean normalized intensity: Homo sapiens testis expressed sequence 14 (TEX14), mRNA. [1]: 3.512
mean normalized intensity: Homo sapiens, Similar to LIM homeobox protein 8, clone IMAGE: 4839343, mRNA. [1]: −0.06288
mean normalized intensity: Homo sapiens, Similar to cadherin 6, type 2, K-cadherin (fetal kidney), clone MGC: 1470, mRNA, complete cds. [1]: 2.547
mean normalized intensity: Homo sapiens, Similar to hypothetical protein FLJ10058, clone MGC: 34305 IMAGE: 5167647, mRNA, complete cds. [1]: 1.698
mean normalized intensity: Homo sapiens, Similar to hypothetical protein FLJ32001, clone MGC: 39559 IMAGE: 4828136, mRNA, complete cds. [1]: 0.5207
mean normalized intensity: Homo sapiens, clone IMAGE: 4067166, mRNA [1]: 0.1959
mean normalized intensity: Homo sapiens, clone IMAGE: 4828836, mRNA. [1]: 0.9729
mean normalized intensity: Homo sapiens, serine (or cysteine) proteinase inhibitor, clade B (ovalbumin), member 3, clone MGC: 12244, mRNA, complete cds. [1]: 1.969
mean normalized intensity: Human mRNA upregulated during camptothecin-induced apoptosis of U937 cells. [1]: 0.4945
mean normalized intensity: Human platelet-derived growth factor alpha-receptor (PDGFRA) mRNA, exons 13-16 [1]: 2.445
mean normalized intensity: KIAA1151 protein [1]: 0.6425
mean normalized intensity: caldesmon 1 [1]: 7.092
mean normalized intensity: nuclear receptor subfamily 1, group I, member 3 [1]: 1.779
mean normalized intensity: ESTs (DE treatment in low serum on MATRIGEL, gene line r2006): 1.5857
mean normalized intensity: ESTs (DE treatment in low serum on MATRIGEL, gene line r2025): 1.531
mean normalized intensity: ESTs (DE treatment in low serum on MATRIGEL, gene line r2032): 0.1336
mean normalized intensity: paternally expressed 3 (DE treatment in low serum on MATRIGEL, gene line r2033): 2.876
mean normalized intensity: ESTs (DE treatment in low serum on MATRIGEL, gene line r2038): 3.262
mean normalized intensity: paternally expressed 3 (DE treatment in low serum on MATRIGEL, gene line r2093): 2.874
mean normalized intensity: ESTs (DE treatment in low serum on MATRIGEL, gene line r2134): −1.3795
mean normalized intensity: ESTs (DE treatment in low serum on MATRIGEL, gene line r2148): 4.454
mean normalized intensity: DKFZP566K1924 protein [2]: 1.391
mean normalized intensity: ESTs, Moderately similar to ALU2_HUMAN ALU SUBFAMILY SB SEQUENCE CONTAMINATION WARNING ENTRY (H. sapiens) [2]: 3.874
mean normalized intensity: H. sapiens mRNA for B-HLH DNA binding protein. [2]: 3.451
mean normalized intensity: Homo sapiens BCL2-interacting killer (apoptosis-inducing) (BIK), mRNA. [2]: 3.562
mean normalized intensity: Homo sapiens Charot-Leyden crystal protein (CLC), mRNA. [2]: 2.1096
mean normalized intensity: Homo sapiens HES-related repressor protein 1 HERP1 mRNA, complete cds. [2]: 2.406
mean normalized intensity: Homo sapiens HSPC156 protein (HSPC156), mRNA. [2]: 1.296
mean normalized intensity: Homo sapiens KIAA0469 gene product (KIAA0469), mRNA. [2]: 2.565
mean normalized intensity: Homo sapiens PNAS-123 mRNA, complete cds [2]: 1.847
mean normalized intensity: Homo sapiens Wilms tumor 1 (WT1), transcript variant D, mRNA. [2]: −2.435
mean normalized intensity: Homo sapiens cDNA FLJ11398 fis, clone HEMBA1000637. [2]: 1.849
mean normalized intensity: Homo sapiens cDNA: FLJ22547 fis, clone HSI00356 [2]: 2.095
mean normalized intensity: Homo sapiens cadherin 6, type 2, K-cadherin (fetal kidney) (CDH6), mRNA. [2]: −0.8763
mean normalized intensity: Homo sapiens chorionic somatomammotropin hormone 2 (CSH2), transcript variant 1, mRNA. [2]: 2.616
mean normalized intensity: Homo sapiens chorionic somatomammotropin hormone 2 (CSH2), transcript variant 4, mRNA. [2]: 2.218
mean normalized intensity: Homo sapiens galanin receptor 1 (GALR1), mRNA. [2]: −0.338
mean normalized intensity: Homo sapiens growth hormone 2 (GH2), transcript variant 2, mRNA. [2]: 1.4679
mean normalized intensity: Homo sapiens hypothetical protein FLJ20075 (FLJ20075), mRNA. [2]: −0.06528
mean normalized intensity: Homo sapiens mRNA for SCCA2b, complete cds. [2]: 0.568
mean normalized intensity: Homo sapiens mRNA; cDNA DKFZp586P1124 (from clone DKFZp586P1124) [2]: −3.094
mean normalized intensity: Homo sapiens methyl-CpG binding protein MBD2 (MBD2) mRNA, complete cds. [2]: −1.702
mean normalized intensity: Homo sapiens tachykinin, precursor 1 (TAC1), transcript variant beta, mRNA. [2]: 1.483
mean normalized intensity: Homo sapiens testis expressed sequence 14 (TEX14), mRNA. [2]: −1.3824
mean normalized intensity: Homo sapiens, Similar to LIM homeobox protein 8, clone IMAGE: 4839343, mRNA. [2]: −1.11
mean normalized intensity: Homo sapiens, Similar to cadherin 6, type 2, K-cadherin (fetal kidney), clone MGC: 1470, mRNA, complete cds. [2]: 2.134
mean normalized intensity: Homo sapiens, Similar to hypothetical protein FLJ10058, clone MGC: 34305 IMAGE: 5167647, mRNA, complete cds. [2]: 0.2156
mean normalized intensity: Homo sapiens, Similar to hypothetical protein FLJ32001, clone MGC: 39559 IMAGE: 4828136, mRNA, complete cds. [2]: 1.269
mean normalized intensity: Homo sapiens, clone IMAGE: 4067166, mRNA [2]: 0.277
mean normalized intensity: Homo sapiens, clone IMAGE: 4828836, mRNA. [2]: −1.484
mean normalized intensity: Homo sapiens, serine (or cysteine) proteinase inhibitor, clade B (ovalbumin), member 3, clone MGC: 12244, mRNA, complete cds. [2]: −1.566
mean normalized intensity: Human mRNA upregulated during camptothecin-induced apoptosis of U937 cells. [2]: −0.1892
mean normalized intensity: Human platelet-derived growth factor alpha-receptor (PDGFRA) mRNA, exons 13-16 [2]: 2.905
mean normalized intensity: KIAA1151 protein [2]: 1.009
mean normalized intensity: caldesmon 1 [2]: 5.634
mean normalized intensity: nuclear receptor subfamily 1, group I, member 3 [2]: −0.1968
mean normalized intensity: ESTs (DE treatment in low serum on MEFS, gene line r2006): −1.3
mean normalized intensity: ESTs (DE treatment in low serum on MEFS, gene line r2025): 1.373
mean normalized intensity: ESTs (DE treatment in low serum on MEFS, gene line r2032): −1.566
mean normalized intensity: paternally expressed 3 (DE treatment in low serum on MEFS, gene line r2033): −0.0118
mean normalized intensity: ESTs (DE treatment in low serum on MEFS, gene line r2038): 1.5682
mean normalized intensity: paternally expressed 3 (DE treatment in low serum on MEFS, gene line r2093): −3.492

— patent US9096832B2, “Differentiation of human embryonic stem cells” (LifeScan, Inc., priority 2007, dated 2015)
